Reference: patent US12398107B2, “Fungicidal nitroanilino substituted pyrazoles” (FMC Corporation, priority 2018, dated 2025)

What was measured:
Format in all cases: in vivo
[1] = test system: Blumeria graminis f. sp. tritici; assay: Test C: wheat powdery mildew, preventive spray on wheat seedlings; details: 50 ppm, rated after 8 days, 100 = 100% disease control, 0 = no control
Method in brief: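 Wheat seedlings got a run-off spray of test suspension (ppm in acetone/water 50/50, 250 ppm PEG400, acetone 3% of volume), then spore-dust inoculation with wheat powdery mildew one day later. After 8 days' growth-chamber incubation at 20° C, disease control scored visually on a 0–100 scale versus untreated controls.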

Alternaria solani = assay: Test F: tomato early blight, preventive spray on tomato seedlings; details: 50 ppm, 100 = 100% disease control, 0 = no control
Method in brief: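 Preventive test: one day after seedlings were sprayed to run-off with ppm-level suspensions (acetone/water 50/50, 250 ppm PEG400), A. solani spore inoculation followed. Incubation was 48 h at 27° C in saturated air plus 3 days at 20° C; disease control was scored visually versus controls (100 = full control).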

Botrytis cinerea = assay: Test E: tomato Botrytis, preventive spray on tomato seedlings; details: 50 ppm, 100 = 100% disease control, 0 = no control
Method in brief: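 Preventive test: spore inoculation one day after run-off spraying of compound suspension (3% acetone, acetone/water 50/50, 250 ppm PEG400). Incubation 20 °C saturated humidity for 48 h, followed by 3 days at 24 °C growth chamber; disease control scored visually, 100 = full control.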

[2] = test system: Puccinia recondita f. sp. tritici; assay: Test B: wheat leaf rust, preventive spray on wheat seedlings; details: 50 ppm, 100 = 100% disease control, 0 = no control relative to controls
Method in brief: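 Wheat seedlings got a run-off spray (ppm, acetone/water 50/50, 250 ppm PEG400) and one day later a spore inoculum. After 24 h at 20° C. in saturated air and 7 days at 20° C., disease was scored as % control relative to controls (100 = full control).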

Septoria tritici = assay: Test A: wheat leaf blotch, preventive spray on wheat seedlings; details: 50 ppm, 100 = 100% disease control, 0 = no control relative to controls
Method in brief: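 Preventive test: seedlings sprayed to run-off one day before Septoria tritici spore inoculation, with ppm doses in acetone/water containing 250 ppm PEG400. After 48 h at 24 °C in saturated air and 17 days at 20 °C, plants were scored 0–100 for disease control versus untreated controls.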

Phakopsora pachyrhizi = assay: Test D: Asian soybean rust, preventive spray on soybean seedlings; details: 50 ppm, 100 = 100% disease control, 0 = no control
Method in brief: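 Soybean seedlings sprayed to run-off with compound suspension (ppm, in 50/50 acetone/water with 250 ppm PEG400), inoculated next day with P. pachyrhizi spores, held 24 h saturated at 22°C then 8 days at 22°C. Visual rating 0-100% disease control relative to controls.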

| Structure (SMILES) | Test C disease control rating (wheat powdery mildew) [1] [%] | Test F disease control rating (tomato early blight) (Alternaria solani) [%] | Test E disease control rating (tomato Botrytis) (Botrytis cinerea) [%] | Test B disease control rating (wheat leaf rust) [2] [%] | Test A disease control rating (wheat leaf blotch) (Septoria tritici) [%] | Test D disease control rating (Asian soybean rust) (Phakopsora pachyrhizi) [%] |
| --- | --- | --- | --- | --- | --- | --- |
| Cc1nn(C)c(Nc2c(F)cc(Br)cc2[N+](=O)[O-])c1-c1ccc(Cl)cc1Cl [Compound 132] | 47 | 96 | 99 | 98 | 100 | 0 |
| Cc1nn(C)c(Nc2c(Cl)cccc2[N+](=O)[O-])c1-c1ccc(Cl)cc1Cl [Compound 133] | 0 | 0 | 97 | 86 | 100 | 0 |
| Cc1nn(C)c(Nc2ccccc2[N+](=O)[O-])c1-c1ccc(C#N)cc1F [Compound 134] | 71 | 0 | 70 | 23 | 100 | 0 |
| Cc1nn(C)c(Nc2ccccc2[N+](=O)[O-])c1-c1c(F)cccc1F [Compound 135] | 93 | 0 | 99 | 68 | 100 | 0 |
| Cc1nn(C)c(Nc2ccccc2[N+](=O)[O-])c1-c1c(F)cccc1Cl [Compound 136] | 88 | 0 | 99 | 80 | 100 | 0 |
| CCc1nn(C)c(Nc2c(F)cc(C)cc2[N+](=O)[O-])c1-c1ccc(F)cc1Cl [Compound 137] | 100 | 99 | 99 | 100 | 100 | 91 |
| COc1cc(F)c(Nc2c(-c3ccc(Cl)cc3Cl)c(C)nn2C)c([N+](=O)[O-])c1 [Compound 138] | 93 | 100 | 99 | 100 | 100 | 67 |
| Cc1nn(C)c(Nc2ccccc2[N+](=O)[O-])c1-c1ccc(F)cc1Br [Compound 139] | 76 | 33 | 100 | 86 | 98 | 0 |
| COc1ccc(-c2c(C)nn(C)c2Nc2ccccc2[N+](=O)[O-])c(Cl)c1 [Compound 140] | 31 | 93 | 100 | 86 | 99 | 0 |
| COc1cc(Cl)c(Nc2c(-c3ccc(F)cc3F)c(C)nn2C)c([N+](=O)[O-])c1 [Compound 141] | 99 | 83 | 99 | 100 | 99 | 0 |
| COc1ccc(Nc2c(-c3ccc(Cl)cc3Cl)c(C)nn2C)c([N+](=O)[O-])c1 [Compound 142] | 39 | 80 | 99 | 91 | 100 | 25 |
| Cc1cc(F)c(Nc2c(-c3ccc(Cl)cc3Cl)c(C)nn2C)c([N+](=O)[O-])c1 [Compound 143] | 96 | 100 | 99 | 100 | 99 | 87 |
| Cc1cccc([N+](=O)[O-])c1Nc1c(-c2ccc(Cl)cc2Cl)c(C)nn1C [Compound 144] | 35 | 0 | 0 | 68 | 100 | 69 |
| Cc1cc(Cl)c(Nc2c(-c3ccc(Cl)cc3Cl)c(C)nn2C)c([N+](=O)[O-])c1 [Compound 145] | 52 | 24 | 85 | 92 | 98 | 0 |
| Cc1nn(C)c(Nc2c(Cl)cc(Cl)cc2[N+](=O)[O-])c1-c1ccc(Cl)cc1Cl [Compound 146] | 0 | 40 | 0 | 98 | 97 | 0 |
| COc1cc(F)c(-c2c(C)nn(C)c2Nc2ccccc2[N+](=O)[O-])c(F)c1 [Compound 147] | 97 | 99 | 100 | 86 | 96 | 0 |
| Cc1nn(C)c(Nc2ccccc2[N+](=O)[O-])c1-c1c(F)cc(F)cc1Cl [Compound 148] | 98 | 100 | 99 | 99 | 100 | 13 |
| Cc1nn(C)c(Nc2ccccc2[N+](=O)[O-])c1-c1c(F)cc(F)cc1F [Compound 149] | 97 | 96 | 99 | 80 | 100 | 0 |
| COc1ccc(Nc2c(-c3c(F)cc(C#N)cc3F)c(C)nn2C)c([N+](=O)[O-])c1 [Compound 150] | 98 | 99 | 100 | 100 | 100 | 13 |
| Cc1nn(C)c(Nc2c(F)cccc2[N+](=O)[O-])c1-c1c(F)cc(Cl)cc1F [Compound 151] | 99 | 99 | 99 | 100 | 100 | 0 |
| Cc1nn(C)c(Nc2c(Cl)cccc2[N+](=O)[O-])c1-c1c(F)cc(F)cc1Cl [Compound 152] | 98 | 92 | 99 | 100 | 99 | 91 |
| Cc1cccc([N+](=O)[O-])c1Nc1c(-c2c(F)cc(F)cc2Cl)c(C)nn1C [Compound 153] | 99 | 72 | 99 | 100 | 99 | 73 |
